From ChEMBL document CHEMBL3507680, “University of Dundee, Gates Library screen for HepG2 cell viability”

Experiment: Human HepG2 cell viability assay in 384 well format
Format: toxicity, cell-based
Design: dose 125 nL, time 70.5 hour; cytotoxicity at 70.5 h: concentration not given beside the values
Settings: HepG2 cells, read-out: Inhibition

Row | SMILES | cytotoxicity at 70.5 h [%]
1 | O=S(=O)(CCc1ccccc1Cl)CC(O)CO (configuration not stated) | -0.491
2 | O=C(C(c1ccccc1)S(=O)(=O)c1ccccc1)N1CCCCC1 (configuration not stated) | 3.14
3 | O=S(=O)(Cc1cccc(F)c1)Nc1cc(Cl)ccn1 | 2.91
4 | O=C(NCc1ccon1)c1c(F)cc(Br)cc1F | -3.14
5 | NC(=O)c1cn(CC2CC2)c(C2CC2)n1 | -7.32
6 | Cc1cccc(NC(=O)NC2CCC3(C2)OCCO3)c1Cl (configuration not stated) | -6.97
7 | Cn1ccnc1CNC1CCCOc2c1ccc1ccccc21 (configuration not stated) | -6.96
8 | O=S(=O)(N1CCCCCC1)N1CCCN(CC2CCCO2)CC1 (configuration not stated) | -1.63
9 | Cc1cc2ccccc2n1CC(=O)NC(C)C(=O)N1CCOCC1 (configuration not stated) | -8.04
10 | O=C(Nc1ccccc1-c1ccccc1)NC1CCC2(C1)OCCO2 (configuration not stated) | 27.5
11 | CCOC(C)c1nccn1Cc1c(C)noc1C (configuration not stated) | -2.96
12 | Cc1csc(CNc2cnc3c(c2)c(C)nn3C)n1 | 12.8
13 | CC(C)(C)c1cnc(CN2CCCS2(=O)=O)o1 | -1.12
14 | Cc1ccc(OCc2cccc(C(=O)N(C)CCC#N)c2)cn1 | 0.941
15 | CC(=O)C(Cc1ccccc1)NC(=O)CSc1nncn1C (configuration not stated) | -5.49
16 | COCCN(Cc1coc(-c2cccc(Cl)c2)n1)C1CC1 | -4.43
17 | Cc1cc(N(Cc2ccccc2F)C2CC2)n2nc(C(F)(F)F)nc2n1 | -1.77
18 | CN(C)C(=O)Cc1ccccc1NCc1nc(Cc2ccccc2)no1 | -0.0229
19 | Cc1noc(CNc2ccccc2CC(=O)N(C)C)n1 | -4.56
20 | Cc1[nH]ncc1CCCNC(=O)N1CCC(C(N)=O)CC1 | -4.17
21 | Fc1cccc2c1CCC2NCc1cnc(N2CCOCC2)nc1 (configuration not stated) | -1.25
22 | CC(NCCn1cccn1)c1ccccc1F (configuration not stated) | -0.726

Row | SMILES | cytotoxicity at 70.5 h [%]
23 | CC(C)Cc1noc(CNc2ccccc2CC(=O)N(C)C)n1 | -3.15
24 | COCCN(Cc1coc(-c2ccc(OC)cc2)n1)C1CC1 | -1.17
25 | O=C(CSCc1ccncc1)NCC1CCN(C2CC2)C1 (configuration not stated) | 1.83
26 | CC(C)c1cnc(CN2CCCS2(=O)=O)o1 | -1.78
27 | CCC(O)(CNCc1ncc[nH]1)c1ccc(Br)cc1 (configuration not stated) | -1.16
28 | CCc1ccc(C(=O)N2CCCC(c3nn[nH]n3)C2)cc1 (configuration not stated) | -3.67
29 | CCCc1n[nH]c(C2CN(CCNC3CCCCC3)CCO2)n1 (configuration not stated) | 9.34
30 | Cc1ncsc1C(=O)NCC1SCCc2ccccc21 (configuration not stated) | 6.22
31 | Cc1cc(CN(C)C(=O)Nc2cnc3c(c2)c(C)nn3C)no1 | -8.11
32 | CC(C)N(C)C(=O)C1CSCN1S(=O)(=O)c1cc(Cl)ccc1Cl (configuration not stated) | 11.9
33 | CC(C)(C)OC(=O)NCC1CCN(C(=O)c2cc(Cl)c[nH]2)CC1 | -14.2
34 | CC(C)N(C)C(=O)C1CSCN1S(=O)(=O)c1cccs1 (configuration not stated) | -8.56
35 | COc1ccccc1CC1CCCN(C(=O)c2cc[nH]n2)C1 (configuration not stated) | -6.57
36 | O=C(O)CCCc1ccc2c(c1)CC(=O)N2 | -9.78
37 | CC1CCCCN1S(=O)(=O)NCCN/C(O)=C1/N=CC=CC1=O (configuration not stated) | -5.82
38 | CC(NC(=O)NCCC(=O)OC(C)(C)C)c1nncn1C (configuration not stated) | -0.412
39 | CC(C(=O)Nc1cccc(Cl)c1SC(F)F)S(C)(=O)=O (configuration not stated) | -3.11
40 | CC(C(=O)Nc1ccccc1Sc1ccccc1)S(C)(=O)=O (configuration not stated) | -3.46
41 | CC(CNC(=O)c1ccncc1F)Oc1ccc(F)cc1 (configuration not stated) | -0.61
42 | COCCC1(CNC(=O)Nc2ccc(-n3nccn3)cc2)CCC1 | 13.3
43 | OC1(CNCc2cnc(N3CCOCC3)nc2)CCCCC1 | -5.66
44 | COCCC1(CNC(=O)Nc2ccc(-n3cccn3)cc2)CCC1 | 2.32

Row | SMILES | cytotoxicity at 70.5 h [%]
45 | CC(C)S(=O)(=O)CCN1CCc2c(ncn2C2CC2)C1 | 3.39
46 | O=C(O)CC(NC(=O)CCCc1cccs1)c1ccc(F)cc1 (configuration not stated) | -2.27
47 | COc1ccc(CN(Cc2cc(C)no2)C2CC2)cc1 | 0.248
48 | CN1CCOC(CNCCCOc2ccc(C#N)cc2)C1 (configuration not stated) | -5.34
49 | Cc1cccc(N2CCN(CCS(=O)(=O)c3ccc(Br)cc3)CC2)c1C | -9.15
50 | Cc1ccccc1N1CCN(CCS(=O)(=O)c2ccc(Br)cc2)CC1 | 16
51 | O=S(=O)(CCN1CCN(c2ccccc2O)CC1)c1ccc(Br)cc1 | -8.18
52 | Cc1nc(-c2nnc[nH]2)sc1C(=O)N1CCCC1c1cccs1 (configuration not stated) | -6.5
53 | COC(=O)Cn1ccc(NS(=O)(=O)c2ccc3c(c2)CCC3)n1 | 17
54 | Cc1nc(-c2nnc[nH]2)sc1C(=O)N1CCCC1c1ccsc1 (configuration not stated) | -5.22
55 | Cc1nc(-c2nnc[nH]2)sc1C(=O)N1CCCC(C(F)(F)F)C1 (configuration not stated) | -4.51
56 | Cc1noc(CCNC(=O)NCc2ccc(N3CCCCC3)cc2)n1 | -5.09
57 | Cc1noc(CCNC(=O)NCc2ccc(OC3CCCC3)cc2)n1 | 0.994
58 | Cc1nc(-c2nnc[nH]2)sc1C(=O)N1CCCC1Cn1cccn1 (configuration not stated) | -3.3
59 | O=C(Cc1csc(-c2ccoc2)n1)NCCCN1CCCCC1 | -5.46
60 | O=C(Cc1csc(-c2ccoc2)n1)NCCC(=O)N1CCCCC1 | -2.09
61 | CC(C)c1csc(NC(=O)NC2CCCN(c3cnn(C)c3)C2)n1 (configuration not stated) | -7.46
62 | O=C(NCCOc1ccc(Cl)cn1)Nc1nccs1 | 11
63 | c1nc(-c2nc(C3CCOC3)no2)cs1 (configuration not stated) | -1.71
64 | N#Cc1csc(CNCCOc2ccccc2)c1 | 0.519
65 | CN1CCN(C(=O)c2cc(C#N)cs2)c2ccccc2C1 | -0.662
66 | CC1CN(C)c2ccccc2CN1C(=O)c1cc(C#N)cn1C (configuration not stated) | 14.8

Row | SMILES | cytotoxicity at 70.5 h [%]
67 | CN1CCN(C(=O)c2cc(C#N)cn2C)c2ccccc2C1 | -2.54
68 | N#Cc1csc(CNCCOc2ncccc2Cl)c1 | 8.52
69 | CCC1CCC(CNC(=O)c2c[nH]c(=O)c(Cl)c2)CC1 (configuration not stated) | -9.94
70 | Cc1nc(-c2nnc[nH]2)sc1C(=O)N1CCCC1CC(C)(C)C (configuration not stated) | -5.06
71 | Cc1csc(C(C)(C)NCc2ncc(-c3ccccc3)o2)n1 | -7.99
72 | COCCOCC(=O)NCc1ccc(N(C)C)nc1 | -5.23
73 | COCCNC(=O)NC1CCN(c2cnn(C)c2)C1 (configuration not stated) | -4.09
74 | Cc1cc(C)cc(CNC(C)c2c(C)nn(C)c2C)c1 (configuration not stated) | -13.1
75 | COCCSCC(=O)NCc1ccnc(N(C)C)c1 | -8.31
76 | Cc1nccn1-c1ccc(C(C)NCCc2ccccn2)cc1 (configuration not stated) | 0.00833
77 | COc1ccc(S(=O)(=O)C(F)(F)F)cc1NC(=O)CSC | -1.98
78 | COCC(=O)Nc1cc(S(=O)(=O)C(F)(F)F)ccc1OC | 2.14
79 | CN(Cc1c(F)cccc1Cl)C(=O)Nc1cnn(CC(N)=O)c1 | 6.9
80 | O=C(Cc1ccc(F)cc1)NS(=O)(=O)c1ccc(F)c(F)c1 | -2.89
81 | COc1ccc(NCc2c[nH]nc2-c2cccnc2)cc1 | 8.67
82 | COc1ccsc1C(=O)NCCNc1ccccc1 | -2.66
83 | COc1cc(C)sc1C(=O)NCCNc1ccccc1 | 11.2
84 | Cc1cccc(CC(=O)NS(=O)(=O)c2ccc(F)c(F)c2)c1 | 8.16
85 | Cc1nccn1-c1ccc(C(C)NCc2cccn2C)cc1 (configuration not stated) | -4.2
86 | O=C1CCC(=O)N1CCN1CCN(c2cc(F)ccc2F)CC1 | -3.59
87 | FC(F)Oc1ccc(CNCc2cc(Cl)c3c(c2)OCO3)cc1 | -5.5
